In ChEMBL document CHEMBL1201862, “PubChem BioAssay data set” (2004):
Calls of active or inactive are those of the source.

Tests used:
[1] = cytotoxicity in COV362 ovarian cancer cells, dose response, cytotoxicity control for PAX8 inhibitor project, cell-based, plate reader, dry powder, SA12 (AID 743144); type: functional
[2] = cytotoxicity dependent on PAX8, dose response, cell-based, plate reader, dry powder (AID 743049); type: functional
[3] = cytotoxicity in OV-90 ovarian cancer cells, dose response, PAX8 inhibitor project, cell-based, plate reader, dry powder, SA8 (AID 743149); type: functional
[4] = molecular target: Paired box protein Pax-8 (Homo sapiens, UniProt Q06710); assay: inhibitors of PAX8-driven TPO luciferase reporter, dose response, RMG-I cells, cherry-pick (AID 687027); type: functional, cell-based;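 also: luciferase reporter driven by Pax8 target thyroperoxidase promoter measured by SteadyGlo luminescence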
[5] = cytotoxicity in COV434 cells, dose response, cytotoxicity control for PAX8 inhibitor project, cell-based, plate reader, dry powder, SA7 (AID 743145); type: functional
[6] = IGROV1 ovarian cancer cell cytotoxicity, dose response, PAX8 inhibitor project, plate reader, dry powder samples (AID 743043); type: functional, cell-based; conditions: IGROV-1
[7] = A2780 ovarian cancer cell cytotoxicity, dose response, cytotoxicity control, plate reader, dry powder samples (AID 743046); type: functional, cell-based
[8] = NIH:OVCAR-3 ovarian cancer cell cytotoxicity, dose response, PAX8 inhibitor project, plate reader, dry powder samples (AID 743044); type: functional, cell-based
[9] = cytotoxicity in OVCAR4 cells, dose response, cytotoxicity control for PAX8 inhibitor project, cell-based, plate reader, dry powder, SA11 (AID 743150); type: functional; conditions: OVCAR-4
[10] = PAX2 cell-based inhibition, dose response, selectivity assay for PAX8 inhibitor project, plate reader, dry powder samples (AID 743048); type: functional;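 also: HEK293 cells carrying a WT1 promoter luciferase reporter driven by expressed Pax2; potency is for inhibition of Pax2 driven reporter signal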
[11] = Counterscreen for inhibitors of Trypanosoma brucei methionyl tRNA synthetase (MetRS): Luminescence-based cell-based high throughput dose response assay to identify compounds that are cytotoxic to Jurkat human T lymphocyte cells.; type: functional
[12] = Late stage counterscreen for inhibitors of Trypanosoma brucei methionyl tRNA synthetase (MetRS): Luminescence-based cell-based high throughput dose response assay to identify compounds that are cytotoxic to Jurkat human T lymphocyte cells.; type: functional
[13] = molecular target: T1, Methionyl-tRNA synthetase, putative (Trypanosoma brucei brucei, UniProt Q38C91); type: functional, Trypanosoma brucei brucei strain 927/4 GUTat10.1
T1 sequence (Q38C91 whole entry): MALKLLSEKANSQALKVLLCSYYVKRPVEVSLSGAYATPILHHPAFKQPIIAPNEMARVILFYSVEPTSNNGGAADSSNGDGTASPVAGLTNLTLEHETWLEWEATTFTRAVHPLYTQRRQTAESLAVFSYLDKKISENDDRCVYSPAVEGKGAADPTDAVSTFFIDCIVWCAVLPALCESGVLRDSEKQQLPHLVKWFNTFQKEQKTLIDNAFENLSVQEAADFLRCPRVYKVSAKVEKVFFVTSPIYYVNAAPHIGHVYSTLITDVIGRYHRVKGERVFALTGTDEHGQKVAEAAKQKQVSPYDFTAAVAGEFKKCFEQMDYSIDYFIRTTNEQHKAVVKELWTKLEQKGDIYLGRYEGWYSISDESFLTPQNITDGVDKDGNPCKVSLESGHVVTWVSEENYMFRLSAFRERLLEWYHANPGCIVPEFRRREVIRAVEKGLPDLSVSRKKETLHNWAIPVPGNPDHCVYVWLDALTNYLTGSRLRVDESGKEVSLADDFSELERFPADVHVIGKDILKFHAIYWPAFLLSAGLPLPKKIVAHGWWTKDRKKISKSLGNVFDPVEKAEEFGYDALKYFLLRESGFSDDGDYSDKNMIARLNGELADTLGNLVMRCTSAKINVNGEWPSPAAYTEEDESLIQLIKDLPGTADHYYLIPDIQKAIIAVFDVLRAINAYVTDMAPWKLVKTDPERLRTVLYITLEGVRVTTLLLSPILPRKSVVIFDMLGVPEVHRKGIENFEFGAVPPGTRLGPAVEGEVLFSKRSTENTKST

[14] = molecular target: T1, Methionyl-tRNA synthetase, putative; type: functional, Trypanosoma brucei brucei strain 927/4 GUTat10.1; remark: listed apart in the source
[15] = molecular target: NAD-dependent protein deacylase sirtuin-5, mitochondrial (Homo sapiens, UniProt Q9NXA8); assay: SIRT5 deacylase inhibitors, dose response, biochemical, fluorescence imaging, cherry-pick, set 6 (AID 720597)
[16] = cytotoxicity in OVCAR8 ovarian cancer cells, dose response, PAX8 project, cell-based, plate reader, dry powder samples (AID 743197); type: functional; conditions: OVCAR-8
[17] = IOSE-T80 ovarian epithelial cell cytotoxicity, dose response, cytotoxicity control for PAX8 inhibitor project, plate reader, dry powder samples (AID 743045); type: functional, cell-based
[18] = HeLa cell cytotoxicity, dose response, cytotoxicity control, CellTiter-Glo luminescence, dry powder, set 2 (AID 720593); type: functional, cell-based
[19] = HepG2 hepatoma cell cytotoxicity, dose response, cytotoxicity control, CellTiter-Glo luminescence, dry powder, set 3 (AID 720594); type: functional, cell-based
[20] = HEK293T cell cytotoxicity, dose response, cytotoxicity control, CellTiter-Glo luminescence, dry powder, set 2 (AID 720595); type: functional, cell-based; conditions: HEK293
[21] = cytotoxicity in HEK-293T cells, dose response, cytotoxicity control for BCR NF-kB inhibitor project, luminescence, B-cell screen hits (AID 489021); type: functional, cell-based;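 also: HEK-293T cells carrying an NF-kB luciferase reporter; cells exposed to compound for about 14 hours before viability readout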
[22] = PAX5 activity inhibitors, dose response, selectivity assay for PAX8 inhibitor project, cell-based, plate reader, dry powder samples (AID 743047); type: functional;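 also: HEK293 cells carrying a Pax5 driven CD19 promoter luciferase reporter; potency of inhibitors that lower reporter luminescence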

Paired box protein Pax-8, sequence (Q06710 whole entry): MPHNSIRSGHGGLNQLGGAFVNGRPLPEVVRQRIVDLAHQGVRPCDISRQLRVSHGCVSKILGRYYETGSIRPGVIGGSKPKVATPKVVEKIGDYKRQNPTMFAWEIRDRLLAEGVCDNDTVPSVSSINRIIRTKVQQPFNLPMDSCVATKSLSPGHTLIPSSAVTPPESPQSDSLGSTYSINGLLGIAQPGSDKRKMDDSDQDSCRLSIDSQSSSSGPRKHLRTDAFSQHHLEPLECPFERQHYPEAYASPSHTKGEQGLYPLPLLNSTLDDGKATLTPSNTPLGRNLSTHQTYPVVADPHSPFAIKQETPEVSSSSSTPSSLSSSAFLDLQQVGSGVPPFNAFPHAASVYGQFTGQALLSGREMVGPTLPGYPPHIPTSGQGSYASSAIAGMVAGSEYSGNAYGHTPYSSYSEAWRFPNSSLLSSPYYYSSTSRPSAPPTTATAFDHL
NAD-dependent protein deacylase sirtuin-5, mitochondrial, sequence (Q9NXA8 whole entry): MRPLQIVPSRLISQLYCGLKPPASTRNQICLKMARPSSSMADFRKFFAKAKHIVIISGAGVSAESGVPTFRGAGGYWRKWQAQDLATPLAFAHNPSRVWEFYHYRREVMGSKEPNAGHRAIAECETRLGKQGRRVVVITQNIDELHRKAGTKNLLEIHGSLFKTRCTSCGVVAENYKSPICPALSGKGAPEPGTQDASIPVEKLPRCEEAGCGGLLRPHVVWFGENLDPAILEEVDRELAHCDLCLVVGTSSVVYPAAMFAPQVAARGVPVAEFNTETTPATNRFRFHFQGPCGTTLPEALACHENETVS

Structure (SMILES)	AC50 [2]	AC50 [4]	AC50 [5]	AC50 [6]	AC50 [7]	AC50 [8]	AC50 [9]	AC50 [10]	other results
COc1cc(/C=C2\SC(=S)N(CCC(=O)N3CCCCC3)C2=O)cc(OC)c1OC	15 µM (active)	8.62 µM (active)	26.8 µM (active)	13.1 µM (active)	26.3 µM (active)	15.5 µM (active)	43 µM (active)	69.6 µM (active)	AC50 [1]: 31.2 µM (active); AC50 [3]: 35.9 µM (active)
O=C(NCc1nc2ccccc2[nH]1)C1=C[C@H](C2CC2)C[C@H](OCc2ccc(CO)cc2)O1									IC50 [11]: 83.3 µM (inactive); IC50 [12]: > 83.3 µM (inactive); IC50 [13]: 3.68 µM (active); IC50 [14]: 8.95 µM (active)
O=C(C[C@H]1C[C@H]2c3cc(NC(=O)C4CCC4)ccc3O[C@H]2[C@H](CO)O1)NCCN1CCCCC1									AC50 [15]: > 30 µM (inactive)
Cc1ccc(S(=O)(=O)Nc2ccc3c(c2)C(=O)N([C@H](C)CO)C[C@H](C)[C@@H](CN(C)S(=O)(=O)c2ccc(C)cc2)OCCCC[C@H](C)O3)cc1		5.76 µM (active)		44.2 µM (active)	34.5 µM (active)	18.5 µM (active)			AC50 [16]: > 70 µM (inactive); AC50 [17]: 23.6 µM (active)
CC(C)C(=O)NC(c1ccco1)c1cc(Cl)c2cccnc2c1O (configuration not stated)									AC50 [18]: 28.3 µM (active); AC50 [19]: > 52 µM (inactive); AC50 [20]: 8.31 µM (active)
CCN(CC(=O)Nc1c(F)cccc1F)C(=O)c1cc(S(=O)(=O)N(C)C)ccc1N1CCCC1	39.3 µM (active)	7.72 µM (active)	29.4 µM (active)	14.2 µM (active)			58.9 µM (active)	88.8 µM (active)	IC50 [21]: > 80 µM (inactive); AC50 [22]: 73.1 µM (active)
